Assay results taken from patent US20180237362A1, “NOVEL POLYGODIAL ANALOGS FOR THE TREATMENT OF CANCER AND OTHER PROLIFERATIVE DISEASES” (THE BOARD OF REGENTS OF THE UNIVERSITY OF TAXAS SYSTEM, priority 2015, published 2018).
Read-outs that look alike come from different tables or passages of the source.

What was measured:
[1] = test system: OSCC cell line HSC3; test: Cell viability (Cell Titer 96 Aqueous), HSC3; assay type: cell-based, human; conditions: for reversal of cytotoxicity by N-acetyl-cysteine: 60 μM compound ± 10 mM NAC; for cancer cell viability, HSC3: 48 hours, potency order P10, polygodial, P3
Excerpt: Human cancer cell lines were obtained from the American Type Culture Collection (ATCC, Manassas, Va., USA), the European Collection of Cell Culture (ECACC, Salisbury, UK) and the Deutsche Sammlung von Mikroorganismen und Zellkulturen (DSMZ, Braunschweig, Germany). The OSCC cell lines, Cal27 and HSC3 are derived from human primary tongue tumor. Cal27 cells were obtained from the American Type Culture Collection (Rockville, Md.). HSC3 cells were provided by Dr. Brian Schmidt. HeLa cells (cervical cancer cell line) were obtained from ATCC. Cells were cultured in DMEM, containing 10% FBS and 1% penicillin-streptomycin media, at 37° C. in 5% CO2. All cells were authenticated by Genetic DNA Laboratories.
The cytotoxicity of polygodial, P10, P3, and P27 in Cal27, HSC3, and HeLa cells was examined in vitro using a colorimetric assay, Cell Titer 96® Aqueous Non-Radioactive Cell Proliferation Assay. […] GraphPad Prism4 was used to perform statistical analysis.

[2] = test system: HeLa cells; test: Morphological changes, HeLa; assay type: cell-based, human; conditions: P3 50 μM, 1 hour
Experimental: FIGS. 12A-B Morphological changes (20×) in HeLa cells (FIG. 12Aa-d) and HSC3 cells (FIG. 12Ba-d) with no treatment (a) or treated with Polygodial 80 μM (b), P10 4 μM (c), and P3 50 μM (d) for 1 hour. Differences in morphological changes between treatments indicate potentially unique mechanisms-of-action between polygodial and P10 (isomer), and P3 (novel analog).

[3] = test system: MDA-MB-231 breast cancer cells expressing TRPV1; test: Intracellular Ca2+ measurements, MDA-MB-231; assay type: cell-based, human; conditions: 1 at 80 μM, 5 at 20 μM; Fura-2
Experimental: Human mammary carcinoma MCF-7 (ATCC HTB22) cells were cultured in RPMI supplemented with 10% FBS. The U87 cells (ATCC HTB-14) were cultured in DMEM culture medium, while the A549 cells (DSMZ ACC107) were cultured in RPMI culture medium supplemented with 10% heat-inactivated FBS. The GBM Hs683 (ATCC HTB-138) cells were cultivated in DMEM supplemented with 10% FBS. The human uterine sarcoma MES-SA (ATCC CRL1966) and MES-SA/D×5 cells were cultured in RPMI-1640 medium supplemented with 10% FBS with MES SA/D×5 maintained in the presence of 500 nM Doxorubicin (Sigma). SKMEL-28 cells (ATCC HTB72) and U373 GBM cells (ECACC 08061901) were cultured in RPMI culture medium supplemented with 10% heat-inactivated FBS. Cell culture media were supplemented with 4 mM glutamine (Lonza code BE17-605E), 100 μg/mL gentamicin (Lonza code 17-5182), and penicillin-streptomycin (200 units/ml and 200 μg/ml) (Lonza code 17-602E). […]
Intracellular Ca^2+ measurements. Cells were grown on glass coverslips for fluorescence imaging. The cytosolic calcium was measured using Fura-2-loaded cells. […] Fluorescence was excited at 350 and 380 nm alternately using a monochromator (Polychrome IV; TILL Photonics, Planegg, Germany), and captured by a Cool SNAP HQ camera (Princeton Instruments, France) after filtration through a long-pass filter (510 nm). […]

[4] = test system: U373 human glioma cell line; test: Quantitative videomicroscopy, U373; assay type: cell-based; conditions: at GI50 concentrations (Table 1)
Experimental: FIG. 8. In vitro videomicroscopic analysis of the anticancer effects of 1 and its C12-Wittig derivatives 5 and 13. The U373 human glioma cell line was treated with polygodial, 5 and 13 at their mean GI50 concentrations (Table 1) or left untreated. Videomicroscopy enabled taking pictures of the culture field every 4 minutes. The experiment was conducted once in triplicate. While the morphology of cells treated with 1 was fixed over time, 5 and 13 exerted cytostatic effects on U373 cells.
In an effort to gain insight into possible mechanisms associated with antiproliferative properties of 1 and the C12-Wittig derivatives, the morphological changes in cells treated with these compounds were studied with computer-assisted phase-contrast microscopy (Luchetti et al., 2012) (quantitative videomicroscopy).

[5] = test system: human MCF-7 breast cancer; test: MTT antiproliferative assay, MCF-7; assay type: cell-based; conditions: sextuplicates, read-out: GI50 in vitro values, MCF-7
Experimental: (§1) Human mammary carcinoma MCF-7 (ATCC HTB22) cells were cultured in RPMI supplemented with 10% FBS. The U87 cells (ATCC HTB-14) were cultured in DMEM culture medium, while the A549 cells (DSMZ ACC107) were cultured in RPMI culture medium supplemented with 10% heat-inactivated FBS. The GBM Hs683 (ATCC HTB-138) cells were cultivated in DMEM supplemented with 10% FBS. The human uterine sarcoma MES-SA (ATCC CRL1966) and MES-SA/D×5 cells were cultured in RPMI-1640 medium supplemented with 10% FBS with MES SA/D×5 maintained in the presence of 500 nM Doxorubicin (Sigma). SKMEL-28 cells (ATCC HTB72) and U373 GBM cells (ECACC 08061901) were cultured in RPMI culture medium supplemented with 10% heat-inactivated FBS. Cell culture media were supplemented with 4 mM glutamine (Lonza code BE17-605E), 100 μg/mL gentamicin (Lonza code 17-5182), and penicillin-streptomycin (200 units/ml and 200 μg/ml) (Lonza code 17-602E). The MDA-MB-231 (ATCC HTB-26) epithelial mammary adenocarcinoma cells were cultured in Eagle's minimum essential medium (EMEM; Invitrogen) containing 5% fetal calf serum (FCS, Cambrex), 2 mM L-glutamine (Invitrogen), 0.06% HEPES (Invitrogen) and penicillin (50 IU/ml)/streptomycin (50 µg/ml; Invitrogen) at 37° C. in a humidified atmosphere of 5% CO2 in air. Transformed mouse NPCs were cultured in suspension under neurosphere conditions at 37° C. in a humidified atmosphere of […] and 5% CO2 in DMEM F12 (Invitrogen 11320-074) supplemented with 1×B27 supplement (Invitrogen 17504-044), 5% penicillin-streptomycin (Biochrom 10378-017), 10 ng/ml EGF (R&D systems 236-EG), 10 ng/ml FGF (PeproTech 100-18B).
(§2) Antiproliferative properties of the synthesized compounds were evaluated by the MTT assay. All compounds were dissolved in DMSO at a concentration of either 100 μM or 50 μM prior to cell treatment. The cells were trypsinized and seeded at various cell concentrations depending on the cell type. The cells were grown for 24 h to 72 h, treated with compounds at concentrations ranging from 0.001 to 100 μM and incubated for 48 or 72 h in 100 or 200 μL media depending on the cell line used. The number of experiments and replicates varied depending on the cell line. Cells treated with 0.1% DMSO were used as a negative control; 1 μM PAO was used as a positive control.
(§3) The synthesized C12-Wittig derivatives were evaluated for antiproliferative activities in a panel of cancer cell lines that included apoptosis-resistant human U373 glioblastoma (GBM) (Lefranc et al., 2013), human A549 non-small cell lung cancer (NSCLC) and human SKMEL-28 melanoma (Mathieu et al., 2009) as well as apoptosis-sensitive human Hs683 anaplastic oligodendroglioma (Lefranc et al., 2013) and human MCF-7 breast cancer (Frolova et al., 2013).

[6] = test system: human Hs683 anaplastic oligodendroglioma; test: MTT antiproliferative assay, Hs683; assay type: cell-based; conditions: sextuplicates, read-out: GI50 in vitro values, Hs683
Experimental: as §1, §2, §3

GI50 ([5]; Homo sapiens, MCF7, 72 h treatment) [µM] | GI50 ([6]; Homo sapiens, Hs 683, 72 h treatment) [µM] | Structure (SMILES) | reversal of cytotoxicity by N-acetyl-cysteine [1] | cancer cell viability, HSC3 [1] | morphological changes, HeLa [2] | [Ca2+]i response [3] | morphological effect by videomicroscopy [4] | GI50 ([5]; 72 h treatment) [µM] | GI50 ([6]; 72 h treatment) [µM]
– | – | COC(=O)/C=C/C1=CC[C@H]2C(C)(C)CCC[C@]2(C)[C@H]1C=O [Compound 5] | Cytotoxicity was reversible | reduced cancer cell viability in vitro | apoptotic figures | sustained and asynchronous [Ca^2+] increases | inhibited cancer cell proliferation without inducing cell death | 7 | 24
75 | 95 | CC1(C)CCC[C@]2(C)[C@@H](C=O)C(C=O)=CC[C@@H]12 [Compound 1, Polygodial] | Cytotoxicity was reversible | reduced cancer cell viability in vitro | – | transient and synchronous [Ca^2+]i increase | strong fixative effects | – | –
